Experiment [1] deals with Epidermal growth factor receptor (Homo sapiens, UniProt P00533). Put plainly: Inhibition of EGFR (unknown origin) by Z-LYTE assay.
Experiment [2] has as its target Receptor tyrosine-protein kinase erbB-2 (Homo sapiens, UniProt P04626). Kind of experiment: Inhibition of HER2 (unknown origin) by Z-LYTE assay.
The next experiment deals with KB. Put plainly: Cytotoxicity against human KB cells after 48 hrs. In kind it is cell-based.
For another experiment, the system named is L1210. Put plainly: Cytotoxicity against mouse L1210 cells after 48 hrs. The following applies: L1210, 48 h. In kind it is cell-based.

Results on 21 compounds are retold here after ChEMBL document CHEMBL2311476, “Inhibitory effects of metachromins L-Q and its related analogs against receptor tyrosine kinases EGFR and HER2” (Bioorg Med Chem Lett, 2013).

Molecules are shown by their SMILES. In brackets after ≈: the same amount, converted by molar mass. Where only a bound is given, the exact number is not on record here.

A word on the IC50: it is the midpoint of a concentration-inhibition curve.

Sequence of Receptor tyrosine-protein kinase erbB-2 (P04626 whole entry): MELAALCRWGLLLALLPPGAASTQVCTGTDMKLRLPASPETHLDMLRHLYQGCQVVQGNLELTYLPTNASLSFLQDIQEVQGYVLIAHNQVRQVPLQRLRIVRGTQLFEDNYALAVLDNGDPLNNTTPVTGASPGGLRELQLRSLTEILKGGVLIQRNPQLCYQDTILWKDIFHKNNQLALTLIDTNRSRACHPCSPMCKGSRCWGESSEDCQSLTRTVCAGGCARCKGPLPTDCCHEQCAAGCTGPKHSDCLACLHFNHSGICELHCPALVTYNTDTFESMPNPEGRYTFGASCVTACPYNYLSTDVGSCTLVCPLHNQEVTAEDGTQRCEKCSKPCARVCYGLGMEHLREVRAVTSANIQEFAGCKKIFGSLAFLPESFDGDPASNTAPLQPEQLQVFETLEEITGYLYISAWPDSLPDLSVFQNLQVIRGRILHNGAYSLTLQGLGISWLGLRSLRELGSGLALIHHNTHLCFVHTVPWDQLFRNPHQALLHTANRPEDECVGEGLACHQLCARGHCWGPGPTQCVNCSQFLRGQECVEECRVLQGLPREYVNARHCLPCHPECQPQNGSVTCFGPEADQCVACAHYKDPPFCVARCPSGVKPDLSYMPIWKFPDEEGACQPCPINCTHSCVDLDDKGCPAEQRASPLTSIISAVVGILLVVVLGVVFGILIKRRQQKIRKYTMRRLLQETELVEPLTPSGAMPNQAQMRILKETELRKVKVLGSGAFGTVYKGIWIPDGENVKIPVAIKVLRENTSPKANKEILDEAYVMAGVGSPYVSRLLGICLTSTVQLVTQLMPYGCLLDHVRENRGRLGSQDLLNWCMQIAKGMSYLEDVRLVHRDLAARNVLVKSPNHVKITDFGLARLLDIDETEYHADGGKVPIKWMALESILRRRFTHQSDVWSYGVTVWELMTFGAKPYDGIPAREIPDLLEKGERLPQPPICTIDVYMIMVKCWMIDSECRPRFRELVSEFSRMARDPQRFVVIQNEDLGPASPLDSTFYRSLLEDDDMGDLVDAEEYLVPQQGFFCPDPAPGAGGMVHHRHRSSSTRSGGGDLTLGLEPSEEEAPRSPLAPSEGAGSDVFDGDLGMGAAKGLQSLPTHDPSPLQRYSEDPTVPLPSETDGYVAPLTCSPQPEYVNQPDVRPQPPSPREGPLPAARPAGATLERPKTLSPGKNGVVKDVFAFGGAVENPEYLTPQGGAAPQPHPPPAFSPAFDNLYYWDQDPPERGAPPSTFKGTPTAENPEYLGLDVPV
Sequence of Epidermal growth factor receptor (P00533 whole entry): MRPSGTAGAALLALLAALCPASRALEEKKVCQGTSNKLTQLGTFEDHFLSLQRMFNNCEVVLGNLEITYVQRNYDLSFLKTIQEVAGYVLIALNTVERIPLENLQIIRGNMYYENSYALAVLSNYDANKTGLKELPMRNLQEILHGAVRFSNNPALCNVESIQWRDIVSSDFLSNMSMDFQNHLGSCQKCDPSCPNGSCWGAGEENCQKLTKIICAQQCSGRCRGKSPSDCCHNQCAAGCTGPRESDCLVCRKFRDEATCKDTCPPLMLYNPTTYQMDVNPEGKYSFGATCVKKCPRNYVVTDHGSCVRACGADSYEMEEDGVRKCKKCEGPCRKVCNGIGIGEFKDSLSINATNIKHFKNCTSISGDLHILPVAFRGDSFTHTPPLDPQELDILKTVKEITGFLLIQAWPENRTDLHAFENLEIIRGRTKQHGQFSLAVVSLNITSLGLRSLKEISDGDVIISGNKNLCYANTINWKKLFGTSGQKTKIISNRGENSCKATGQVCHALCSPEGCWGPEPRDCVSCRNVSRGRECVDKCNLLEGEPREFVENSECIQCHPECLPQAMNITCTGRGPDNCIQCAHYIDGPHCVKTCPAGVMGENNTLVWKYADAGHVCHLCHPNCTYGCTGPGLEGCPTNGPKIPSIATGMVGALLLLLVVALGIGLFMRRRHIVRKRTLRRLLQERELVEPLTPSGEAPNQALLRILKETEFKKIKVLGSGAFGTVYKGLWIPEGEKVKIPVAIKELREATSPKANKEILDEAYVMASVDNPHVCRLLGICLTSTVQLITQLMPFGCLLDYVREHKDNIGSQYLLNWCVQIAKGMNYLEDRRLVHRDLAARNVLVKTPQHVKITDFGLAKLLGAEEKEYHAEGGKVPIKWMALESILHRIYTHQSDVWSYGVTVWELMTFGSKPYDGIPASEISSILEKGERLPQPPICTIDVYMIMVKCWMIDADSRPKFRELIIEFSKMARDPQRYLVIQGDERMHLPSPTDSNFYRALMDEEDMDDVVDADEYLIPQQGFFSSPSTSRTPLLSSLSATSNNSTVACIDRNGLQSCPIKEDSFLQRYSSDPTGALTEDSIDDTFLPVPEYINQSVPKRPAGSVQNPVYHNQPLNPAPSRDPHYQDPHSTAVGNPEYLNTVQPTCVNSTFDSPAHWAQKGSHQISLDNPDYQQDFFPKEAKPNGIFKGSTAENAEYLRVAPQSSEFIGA

As to `CC1=CCC[C@](C)(CC/C(C)=C/CC2=C(O)C(=O)C=C(N[C@H](CO)C(=O)O)C2=O)[C@@H]1C`, the IC50 in experiment [1] is more than 463 µM; in experiment [2], more than 463 µM; in the experiment with KB, more than 10 µg/mL; with L1210 it was more than 10 µg/mL.

In the case of `COC1=CC(=O)C(O)=C(C/C=C(\C)CC[C@@]2(C)CCC=C(C)[C@H]2C)C1=O` [METACHROMIN C], the IC50 in experiment [1] is more than 558 µM; in experiment [2], more than 558 µM; in the experiment on KB it was more than 10 µg/mL.

As to `C=C1[C@H](C)CCC[C@]1(C)CC/C(C)=C/CC1=C(O)C(=O)C=C(N[C@H](C(=O)O)[C@H](C)O)C1=O`, the IC50 is more than 449 µM in experiment [1], more than 449 µM in experiment [2], more than 10 µg/mL with KB and more than 10 µg/mL in the experiment on L1210.

As for `CC1=CCC[C@](C)(CC/C(C)=C/CC2=C(O)C(=O)C=C(N[C@@H](C(=O)O)[C@H](C)O)C2=O)[C@@H]1C`, the IC50 in experiment [1] was more than 449 µM; in experiment [2] it was 215 µM; in the experiment on KB, more than 10 µg/mL; in the experiment on L1210 it was more than 10 µg/mL.

Take `CC1=CCC[C@](C)(CC/C(C)=C/CC2=C(O)C(=O)C=C(N[C@@H](C(=O)O)C(C)C)C2=O)[C@@H]1C`: the IC50 was 334 µM in experiment [1], 83.4 µM in experiment [2], more than 10 µg/mL in the experiment with KB and 3 µg/mL (≈ 6.76 µM) with L1210.

With `C=C1[C@H](C)CCC[C@]1(C)CC/C(C)=C/CC1=C(O)C(=O)C=C(N[C@@H](C(=O)O)[C@@H](C)O)C1=O`, the IC50 was 211 µM in experiment [1], 180 µM in experiment [2], more than 10 µg/mL in the experiment with KB and more than 10 µg/mL in the experiment with L1210.

As for `CC1=CCC[C@](C)(CC/C(C)=C/CC2=C(O)C(=O)C=C(N[C@@H](CO)C(=O)O)C2=O)[C@@H]1C` [METACHROMIN Q], the IC50 was more than 463 µM in experiment [1], 51 µM in experiment [2], more than 10 µg/mL with KB and more than 10 µg/mL in the experiment on L1210.

Regarding `C=C1[C@H](C)CCC[C@]1(C)CC/C(C)=C/CC1=C(O)C(=O)C=C(N[C@@H](CO)C(=O)O)C1=O` [METACHROMIN P], the IC50 in experiment [1] is more than 463 µM; in experiment [2], 41.7 µM; in the experiment with KB it was more than 10 µg/mL; in the experiment on L1210, more than 10 µg/mL.

On to `C=C1[C@H](C)CCC[C@]1(C)CC/C(C)=C/CC1=C(O)C(=O)C=C(NCC(=O)O)C1=O` [METACHROMIN L], for which the half-inhibitory concentration (IC50) in experiment [1] was 491 µM; in experiment [2], 311 µM; in the experiment on KB it was 4 µg/mL (≈ 9.96 µM); in the experiment with L1210 it was 4 µg/mL (≈ 9.96 µM).

As for `C=C1[C@H](C)CCC[C@]1(C)CC/C(C)=C/CC1=C(O)C(=O)C=C(OC)C1=O` [METACHROMIN A], the IC50 in experiment [1] is more than 558 µM; in experiment [2] it was more than 558 µM; in the experiment on KB, more than 10 µg/mL; in the experiment on L1210, 2.4 µg/mL (≈ 6.69 µM).

For the compound `C=C1[C@H](C)CCC[C@]1(C)CC/C(C)=C/CC1=C(O)C(=O)C=C(N[C@H](C(=O)O)C(C)C)C1=O`, the IC50 is 435 µM in experiment [1], 104 µM in experiment [2], more than 10 µg/mL in the experiment on KB and 4.4 µg/mL (≈ 9.92 µM) with L1210.

As for `CC1=CCC[C@](C)(CC/C(C)=C/CC2=C(O)C(=O)C=C(N[C@@H](C(=O)O)[C@@H](C)O)C2=O)[C@@H]1C`, the IC50 was 269 µM in experiment [1], more than 449 µM in experiment [2], more than 10 µg/mL in the experiment on KB and more than 10 µg/mL in the experiment on L1210.

As to `CC1=CCC[C@](C)(CC/C(C)=C/CC2=C(O)C(=O)C=C(N[C@H](C(=O)O)C(C)C)C2=O)[C@@H]1C`, the IC50 is 293 µM in experiment [1], 78.9 µM in experiment [2], more than 10 µg/mL in the experiment on KB and 3.4 µg/mL (≈ 7.66 µM) in the experiment on L1210.

Regarding `C=C1[C@H](C)CCC[C@]1(C)CC/C(C)=C/CC1=C(O)C(=O)C=C(N[C@@H](C(=O)O)C(C)C)C1=O`, the IC50 in experiment [1] is 293 µM; in experiment [2], 142 µM; with KB it was 6.2 µg/mL (≈ 14 µM); in the experiment on L1210, 3.4 µg/mL (≈ 7.66 µM).

For the compound `C=C1[C@H](C)CCC[C@]1(C)CC/C(C)=C/CC1=C(O)C(=O)C=C(N[C@@H](C(=O)O)[C@H](C)O)C1=O`, the IC50 is more than 449 µM in experiment [1], more than 449 µM in experiment [2], more than 10 µg/mL in the experiment on KB and 4.6 µg/mL (≈ 10.3 µM) with L1210.

In the case of `C=C1[C@H](C)CCC[C@]1(C)CC/C(C)=C/CC1=C(O)C(=O)C=C(N[C@H](CO)C(=O)O)C1=O`, the IC50 in experiment [1] was more than 463 µM; in experiment [2], more than 463 µM; with KB, more than 10 µg/mL; with L1210, 2.6 µg/mL (≈ 6.03 µM).

For the compound `CC1=CCC[C@](C)(CC/C(C)=C/CC2=C(O)C(=O)C=C(N[C@H](C(=O)O)[C@H](C)O)C2=O)[C@@H]1C`, the concentration for half-maximal inhibition (IC50) in experiment [1] was more than 449 µM; in experiment [2] it was 89.8 µM; in the experiment with KB, more than 10 µg/mL; in the experiment with L1210, more than 10 µg/mL.

Turning to `C=C1[C@H](C)CCC[C@]1(C)CC/C(C)=C/CC1=C(O)C(=O)C=C(N[C@H](C(=O)O)[C@@H](C)O)C1=O` [METACHROMIN N], the IC50 in experiment [1] is more than 449 µM; in experiment [2], 426 µM; in the experiment with KB it was more than 10 µg/mL; in the experiment with L1210, more than 10 µg/mL.

`CC1=CCC[C@H]2[C@](C)(CC3=C(O)C(=O)C=C(N[C@@H](CO)C(=O)O)C3=O)[C@@H](C)CC[C@]12C` [NAKIJIQUINONE C]: the IC50 is 290 µM in experiment [1], 69.5 µM in experiment [2], 7.6 µg/mL (≈ 17.6 µM) in the experiment with KB and 3.8 µg/mL (≈ 8.81 µM) in the experiment on L1210.

On to `CC1=CCC[C@](C)(CC/C(C)=C/CC2=C(O)C(=O)C=C(N[C@H](C(=O)O)[C@@H](C)O)C2=O)[C@@H]1C` [METACHROMIN O], for which the half-inhibitory concentration (IC50) is more than 449 µM in experiment [1], 60.6 µM in experiment [2], more than 10 µg/mL with KB and more than 10 µg/mL in the experiment on L1210.

For `CC1=CCC[C@](C)(CC/C(C)=C/CC2=C(O)C(=O)C=C(NCC(=O)O)C2=O)[C@@H]1C` [METACHROMIN M], the IC50 is more than 498 µM in experiment [1], 197 µM in experiment [2], 5.4 µg/mL (≈ 13.4 µM) in the experiment with KB and 3.5 µg/mL (≈ 8.72 µM) in the experiment with L1210.
